In patent US20070049593A1 (priority 2004, published 2007):

Biological target: T1, HCV polymerase (Hepatitis C virus genotype 1b, UniProt P26663)
T1 construct: a region encoding NS5B (J Virol 1991 March, 65(3), 1105-13, 544 amino acids after deletion of 47 amino acids on the C-terminal); 6xHis (C); made in house; host or cells: Escherichia coli
Test: biochemical
Design: species or system HCV BK strain
Method in brief: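 Recombinant HCV BK-strain NS5B (C-terminal 47 aa deleted, His6-tagged, E. coli), 0.5 μg/ml, run with 5 μg/ml in vitro-transcribed RNA template (polyU/3′X), ATP/GTP/CTP 50 μM, UTP 2 μM plus [3H]UTP, pH 7.5, 25° C, 90 min. TCA-precipitated RNA counted by scintillation; IC50 from activity with vs without compound.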

T1 sequence (P26663 2420-2963): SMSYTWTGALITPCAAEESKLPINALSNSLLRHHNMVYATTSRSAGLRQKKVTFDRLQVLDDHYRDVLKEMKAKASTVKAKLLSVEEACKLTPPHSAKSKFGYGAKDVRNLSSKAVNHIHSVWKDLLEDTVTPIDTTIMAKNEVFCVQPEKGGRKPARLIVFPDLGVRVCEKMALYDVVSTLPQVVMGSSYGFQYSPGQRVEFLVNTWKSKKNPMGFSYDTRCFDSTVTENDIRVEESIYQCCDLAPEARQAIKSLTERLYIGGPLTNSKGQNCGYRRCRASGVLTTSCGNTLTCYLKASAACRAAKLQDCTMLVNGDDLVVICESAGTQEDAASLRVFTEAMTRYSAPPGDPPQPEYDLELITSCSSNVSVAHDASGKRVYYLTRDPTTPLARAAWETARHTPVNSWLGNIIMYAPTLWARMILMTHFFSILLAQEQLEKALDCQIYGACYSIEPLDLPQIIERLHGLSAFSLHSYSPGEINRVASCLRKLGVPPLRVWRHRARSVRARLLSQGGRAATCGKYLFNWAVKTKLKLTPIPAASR

Q: With COCC(NC(=O)c1ccc2c(C3CCCCC3)c3n(c2c1)CCOc1cc(OC)ccc1-3)C(=O)N1CCC(O)CC1 (centres unmarked) [Example 2-368, N-[2-(4-hydroxypiperidin-1-yl)-1-methoxymethyl-2-oxoethyl]-12-cyclohexyl-3-methoxy-6,7-dihydro-5-oxa-7a-azadibenzo[a,e]azulene-9-carboxamide] as the compound, how does the IC50 read?
A: < 100 nM

Q: COc1ccc2c(c1)OCCn1c-2c(C2CCCCC2)c2ccc(C(=O)N[C@@H](Cc3ccc(OCc4ccccc4)cc3)c3nccs3)cc21 [Example 2-369, N—(S)-[2-(4-benzyloxyphenyl)-1-(thiazol-2-yl)ethyl]-12-cyclohexyl-3-methoxy-6,7-dihydro-5-oxa-7a-azadibenzo[a,e]azulene-9-carboxamide] was tested. Which IC50 did it give?
A: < 100 nM

Q: For COc1ccc2c(c1)OCCn1c-2c(C2CCCCC2)c2ccc(C(=O)NC(C)(C)c3nc4cc(-c5nc(C)no5)ccc4[nH]3)cc21 [Example 2-370, N-(1-methyl-1-[5-(3-methyl-1,2,4-oxadiazol-5-yl)-1H-benzimidazol-2-yl]ethyl}-12-cyclohexyl-3-methoxy-6,7-dihydro-5-oxa-7a-azadibenzo[a,e]azulene-9-carboxamide], which IC50 is on record?
A: < 100 nM

Q: For COc1ccc2c(c1)OCCn1c-2c(C2CCCCC2)c2ccc(C(=O)N[C@@H](CCC(N)=O)C(=O)OC(C)(C)C)cc21 [Example 2-371, tert-butyl (S)-4-carbamoyl-2-[(12-cyclohexyl-3-methoxy-6,7-dihydro-5-oxa-7a-azadibenzo[a,e]azulene-9-carbonyl)amino]butyrate], which IC50 is on record?
A: < 100 nM

Q: How did the IC50 turn out when COc1ccc2c(c1)OCCn1c-2c(C2CCCCC2)c2ccc(C(=O)N[C@@H](CCC(N)=O)C(=O)O)cc21 [Example 2-372, (S)-4-carbamoyl-2-[(12-cyclohexyl-3-methoxy-6,7-dihydro-5-oxa-7a-azadibenzo[a,e]azulene-9-carbonyl)amino]butyric acid] was run?
A: < 100 nM

Q: How did the IC50 turn out when COC(=O)[C@H](Cc1ccc(O)cc1)NC(=O)c1ccc2c(C3CCCCC3)c3n(c2c1)CCOc1cc(OC)ccc1-3 [Example 2-373, methyl (S)-2-[(12-cyclohexyl-3-methoxy-6,7-dihydro-5-oxa-7a-azadibenzo[a,e]azulene-9-carbonyl)amino]-3-(4-hydroxyphenyl)propionate] was run?
A: < 100 nM

Q: Which IC50 does the source give for COC(=O)C(Cc1ccc(C(F)(F)F)cc1)NC(=O)c1ccc2c(C3CCCCC3)c3n(c2c1)CCOc1cc(OC)ccc1-3 (centres unmarked) [Example 2-374, methyl 2-[(12-cyclohexyl-3-methoxy-6,7-dihydro-5-oxa-7a-azadibenzo[a,e]azulene-9-carbonyl)amino]-3-(4-trifluoromethylphenyl)propionate] here?
A: < 100 nM

Q: How did the IC50 turn out when COc1ccc2c(c1)OCCn1c-2c(C2CCCCC2)c2ccc(C(=O)N[C@@H](Cc3ccc(O)cc3)C(=O)O)cc21 [Example 2-375, (S)-2-[(12-cyclohexyl-3-methoxy-6,7-dihydro-5-oxa-7a-azadibenzo[a,e]azulene-9-carbonyl)amino]-3-(4-hydroxyphenyl)propionic acid] was run?
A: < 100 nM

Q: How did the IC50 turn out when COc1ccc2c(c1)OCCn1c-2c(C2CCCCC2)c2ccc(C(=O)N[C@@H](CCc3ccc(O)cc3)C(=O)O)cc21 [Example 2-376, (S)-2-[(12-cyclohexyl-3-methoxy-6,7-dihydro-5-oxa-7a-azadibenzo[a,e]azulene-9-carbonyl)amino]-4-(4-hydroxyphenyl)butyric acid] was run?
A: < 100 nM

Q: How did the IC50 turn out when COC(=O)[C@H](Cc1ccc(OCC(=O)OC(C)(C)C)cc1)NC(=O)c1ccc2c(C3CCCCC3)c3n(c2c1)CCOc1cc(OC)ccc1-3 [Example 2-377, methyl (S)-3-(4-tert-butoxycarbonylmethoxyphenyl)-2-[(12-cyclohexyl-3-methoxy-6,7-dihydro-5-oxa-7a-azadibenzo[a,e]azulene-9-carbonyl)amino]propionate] was run?
A: < 100 nM

Q: For COC(=O)[C@H](Cc1ccc(OCC(=O)O)cc1)NC(=O)c1ccc2c(C3CCCCC3)c3n(c2c1)CCOc1cc(OC)ccc1-3 [Example 2-378, methyl (S)-3-(4-carboxymethoxyphenyl)-2-[(12-cyclohexyl-3-methoxy-6,7-dihydro-5-oxa-7a-azadibenzo[a,e]azulene-9-carbonyl)amino]propionate], which IC50 is on record?
A: < 100 nM
